This is an account of results in US20240199616A1, “BICYCLIC COMPOUNDS AS ALLOSTERIC SHP2 INHIBITORS” (Revolution Medicines, Inc., priority 2017, published 2024).

The assay addresses SHP2 (Homo sapiens (Human), UniProt Q06124). Nature of the assay: SHP2 allosteric inhibition assay (DiFMUP prompt fluorescence). The assay is classed as biochemical. The settings on record: 0.2 nM SHP2 incubated with 0.5 μM Activating Peptide 1 or 2, 30-60 min at 25° C., surrogate substrate DiFMUP, kinetic read. The source says: Without wishing to be bound by theory, SHP is allosterically activated through binding of bis-tyrosyl-phosphorylated peptides to its Src Homology 2 (SH2) domains. The latter activation step leads to the release of the auto-inhibitory interface of SHP2, which in turn renders the SHP2 protein tyrosine phosphatase (PTP) active and available for substrate recognition and reaction catalysis. The catalytic activity of SHP2 was monitored using the surrogate substrate DiFMUP in a prompt fluorescence assay format.
The phosphatase reactions were performed at room temperature in 96-well black polystyrene plate, flat bottom, non-binding surface (Corning, Cat #3650) using a final reaction volume of 100 μL and the following assay buffer conditions: 50 mM HEPES, pH 7.2, 100 mM NaCl, 0.5 mM EDTA, 0.05% P-20, 1 mM DTT.
The inhibition of SHP2 by compounds of the disclosure (concentrations varying from 0.00005-10 μM) was monitored using an assay in which 0.2 nM of SHP2 was incubated with 0.5 μM of Activating Peptide 1 (sequence: H2N-LN(pY)IDLDLV(dPEG8)LST(pY)ASINFQK-amide) or Activating Peptide 2 (sequence: H2N-LN(pY)AQLWHA(dPEG8)LTI(pY)ATIRRF-amide). […]

Sequence of SHP2 (Q06124 whole entry): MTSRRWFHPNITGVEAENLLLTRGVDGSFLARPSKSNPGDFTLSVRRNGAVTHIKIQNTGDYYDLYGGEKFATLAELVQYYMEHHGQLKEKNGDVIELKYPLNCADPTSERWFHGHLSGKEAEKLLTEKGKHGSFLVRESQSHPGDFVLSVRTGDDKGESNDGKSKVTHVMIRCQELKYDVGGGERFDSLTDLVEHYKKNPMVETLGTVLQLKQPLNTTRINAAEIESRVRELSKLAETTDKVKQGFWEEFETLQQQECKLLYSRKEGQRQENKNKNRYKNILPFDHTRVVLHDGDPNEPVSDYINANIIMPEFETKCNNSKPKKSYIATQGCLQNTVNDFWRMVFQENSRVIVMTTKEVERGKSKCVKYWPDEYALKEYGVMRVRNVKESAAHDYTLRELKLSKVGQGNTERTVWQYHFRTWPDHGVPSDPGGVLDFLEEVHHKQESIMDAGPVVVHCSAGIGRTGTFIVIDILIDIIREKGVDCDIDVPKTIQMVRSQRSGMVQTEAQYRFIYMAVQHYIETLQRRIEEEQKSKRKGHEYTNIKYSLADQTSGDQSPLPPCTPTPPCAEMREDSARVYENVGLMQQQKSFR

As to `Cc1nc(N2CCC3(CCC[C@H]3N)CC2)c2cncn2c1-c1cccc(Cl)c1Cl` [Compound 3, (1R)-8-[5-(2,3-dichlorophenyl)-6-methylimidazo[1,5-a]pyrazin-8-yl]-8-azaspiro[4.5]decan-1-amine], the IC50 amounted to 34 nM.

The IC50 is the concentration that gives 50% inhibition. Read a low IC50 as greater potency.
